Measurements as given in the supplement of paper PMC10307832.

Experiments:
Assay in all cases: relative viability (nuclei count vs DMSO), 5 days (fraction); higher = more cells survive
NPK76-II-72-1 + Olaparib = compound: CC1CC(=O)N(C2=CN=C(N=C2N1C3CCCC3)NC4=C(C=C(C=C4)C(=O)NC5CCN(CC5)C)OC)C [NPK76-II-72-1] + O=C(c1cc(Cc2n[nH]c(=O)c3ccccc23)ccc1F)N1CCN(C(=O)C2CC2)CC1 [Olaparib] (partner 8 µM)
Method in brief: (§1)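 Each reported value is a median over duplicate plates. It expresses relative viability: treated-well nuclei count divided by vehicle-well nuclei count. Lung cancer cell lines in 1536-well plates were dosed by pin tool a day after seeding, alone with one drug or with a fixed anchor-drug dose plus five library-drug doses (not always all listed) in √10 steps, and nuclei were counted after 5 days.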

[1] = compound: CC1CC(=O)N(C2=CN=C(N=C2N1C3CCCC3)NC4=C(C=C(C=C4)C(=O)NC5CCN(CC5)C)OC)C [NPK76-II-72-1] + Nc1nc2[nH]cc(CCc3ccc(C(=O)N[C@@H](CCC(=O)O)C(=O)O)cc3)c2c(=O)[nH]1 [Pemetrexed] (partner 0.2 µM)
Method in brief: as §1

BI-2536 + Vorinostat = compound: CC[C@@H]1C(=O)N(C)c2cnc(Nc3ccc(C(=O)NC4CCN(C)CC4)cc3OC)nc2N1C1CCCC1 [BI-2536] + O=C(CCCCCCC(=O)Nc1ccccc1)NO [Vorinostat] (partner 1 µM)
Method in brief: as §1

BI-2536 + Pictilisib = compound: CC[C@@H]1C(=O)N(C)c2cnc(Nc3ccc(C(=O)NC4CCN(C)CC4)cc3OC)nc2N1C1CCCC1 [BI-2536] + CS(=O)(=O)N1CCN(Cc2cc3nc(-c4cccc5[nH]ncc45)nc(N4CCOCC4)c3s2)CC1 [Pictilisib] (partner 1 µM)
Method in brief: as §1

Row | Cell Line | relative viability (NPK76-II-72-1 + Olaparib; first compound 0.01 µM) | relative viability (NPK76-II-72-1 + Olaparib; first compound 0.03162 µM) | relative viability (NPK76-II-72-1 + Olaparib; first compound 0.1 µM) | relative viability (NPK76-II-72-1 + Olaparib; first compound 0.3162 µM) | relative viability (NPK76-II-72-1 + Olaparib; first compound 1 µM) | relative viability ([1]; first compound 0.01 µM) | relative viability ([1]; first compound 0.03162 µM) | relative viability ([1]; first compound 0.1 µM) | relative viability ([1]; first compound 0.3162 µM) | relative viability ([1]; first compound 1 µM) | relative viability (BI-2536 + Vorinostat; first compound 0.01 µM) | relative viability (BI-2536 + Vorinostat; first compound 0.03162 µM) | relative viability (BI-2536 + Vorinostat; first compound 0.1 µM) | relative viability (BI-2536 + Vorinostat; first compound 0.3162 µM) | relative viability (BI-2536 + Vorinostat; first compound 1 µM) | relative viability (BI-2536 + Pictilisib; first compound 0.01 µM) | relative viability (BI-2536 + Pictilisib; first compound 0.03162 µM) | relative viability (BI-2536 + Pictilisib; first compound 0.1 µM) | relative viability (BI-2536 + Pictilisib; first compound 0.3162 µM) | relative viability (BI-2536 + Pictilisib; first compound 1 µM)
1 | LK-2 | 0.775 | 0.716 | 0.679 | 0.565 | 0.725 | 0.228 | 0.292 | 0.334 | 0.235 | 0.271 | 0.181 | 0.242 | 0.15 | 0.104 | 0.155 | 0.569 | 0.389 | 0.375 | 0.196 | 0.297
2 | LOU-NH91 | 0.906 | 0.926 | 0.893 | 0.785 | 0.991 | 0.348 | 0.402 | 0.381 | 0.44 | 0.35 | 0.915 | 0.865 | 0.443 | 0.311 | 0.264 | 0.545 | 0.516 | 0.474 | 0.284 | 0.276
3 | NCI-H522 | 0.586 | 0.661 | 0.703 | – | 0.607 | 0.839 | 0.914 | 1.01 | – | 0.797 | 0.785 | 0.933 | 0.533 | 0.277 | 0.284 | – | – | – | – | –
4 | NCI-H727 | 0.957 | 0.774 | 0.655 | 0.699 | 0.679 | – | – | – | – | – | 1.12 | 1.11 | 0.797 | 0.513 | 0.4 | 0.391 | 0.338 | 0.433 | 0.265 | 0.19
5 | NCI-H1299 | 0.946 | 1.01 | 0.953 | 0.95 | 0.947 | – | – | – | – | – | – | – | – | – | – | 0.708 | 0.351 | 0.154 | 0.0991 | 0.0448
6 | NCI-H1563 | – | – | – | – | – | 0.581 | 0.767 | 0.839 | 0.604 | 0.767 | – | – | – | – | – | 0.699 | 0.61 | 0.558 | 0.578 | 0.511
7 | NCI-H1648 | 0.535 | 0.891 | 0.567 | 0.889 | 1.05 | 0.633 | 0.648 | 0.702 | 0.739 | 0.732 | 0.331 | 0.596 | 0.264 | 0.189 | 0.21 | – | – | – | – | –
8 | NCI-H1703 | 0.473 | 0.54 | 0.381 | 0.33 | 0.431 | – | – | – | – | – | – | – | – | – | – | 0.244 | 0.239 | 0.137 | 0.174 | 0.131
9 | NCI-H1792 | – | 0.362 | 0.357 | 0.419 | 0.742 | – | 0.961 | 0.627 | 0.636 | 1.06 | – | – | – | – | – | 0.307 | 0.354 | 0.207 | 0.111 | 0.0623
10 | NCI-H2342 | 0.393 | 0.377 | 0.457 | 0.43 | 0.535 | 0.74 | 0.755 | 0.812 | 0.584 | 0.772 | – | 0.705 | 0.79 | 0.445 | 0.385 | – | – | – | – | –
11 | SW 900 | 0.805 | 0.908 | 0.739 | 0.743 | 0.982 | 0.445 | 0.49 | 0.493 | 0.463 | 0.493 | 0.445 | 0.598 | 0.481 | 0.159 | 0.218 | – | – | – | – | –
